Data from PMC12566046, “Arylpiperazinyl-Benzocycloheptapyrrole-Carboxamides Endowed with Dual Anticancer and Antiviral Activities” (Molecules, 2025).

Experiments:
[1] = test system: IAV strain A/PR/8/34 (H1N1); test: microbe, parasite or virus in culture; conditions: Influenza A virus, MDCK, read-out: IAV/MDCK EC50
in vitro = conditions: dog
[2] = test system: MDA-MB-435 (melanoma cell line); test: NCI-60 single-dose assay; type: cell-based, human; conditions: Homo sapiens, MDA-MB-435, read-out: growth inhibition (GI%) and cytotoxicity (negative values)
Procedure, shortened: (§1)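 NCI-60 one-dose format: each compound is tested at a single dose against human tumour lines for cytotoxic effect.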

[3] = test system: MALME-3M (melanoma cell line); test: NCI-60 single-dose assay; type: cell-based, human; conditions: Homo sapiens, Malme-3M, read-out: growth inhibition (GI%) and cytotoxicity (negative values)
Procedure, shortened: as §1

SR (leukemia cell line) = test: NCI-60 single-dose assay; type: cell-based, human; conditions: Homo sapiens, read-out: growth inhibition (GI%) and cytotoxicity (negative values)
Procedure, shortened: as §1

[4] = test system: NCI-H23 (non-small cell lung cancer cell line); test: NCI-60 single-dose assay; type: cell-based, human; conditions: Homo sapiens, NCI-H23, read-out: growth inhibition (GI%) and cytotoxicity (negative values)
Procedure, shortened: as §1

[5] = test system: MCF-7 (breast cancer cell line); test: NCI-60 single-dose assay; type: cell-based, human; conditions: Homo sapiens, MCF7, read-out: growth inhibition (GI%) and cytotoxicity (negative values), MCF-7, 10^−5 M
Procedure, shortened: as §1

[6] = test system: MDA-MB-231/ATCC (breast cancer cell line); test: NCI-60 single-dose assay; type: cell-based, human; conditions: Homo sapiens, MDA-MB-231, read-out: growth inhibition (GI%) and cytotoxicity (negative values)
Procedure, shortened: as §1

[7] = test system: HT29 (colon cancer cell line); test: NCI-60 single-dose assay; type: cell-based, human; conditions: Homo sapiens, HT-29, read-out: growth inhibition (GI%) and cytotoxicity (negative values)
Procedure, shortened: as §1

[8] = test system: SN12C (renal cancer cell line); test: NCI-60 single-dose assay; type: cell-based, human; conditions: Homo sapiens, read-out: growth inhibition (GI%) and cytotoxicity (negative values)
Procedure, shortened: as §1

[9] = test system: HCT-15 (colon cancer cell line); test: NCI-60 single-dose assay; type: cell-based, human; conditions: Homo sapiens, HCT-15, read-out: growth inhibition (GI%) and cytotoxicity (negative values)
Procedure, shortened: as §1

[10] = test system: UO-31 (renal cancer cell line); test: NCI-60 single-dose assay; type: cell-based, human; conditions: Homo sapiens, UO-31, read-out: growth inhibition (GI%) and cytotoxicity (negative values)
Procedure, shortened: as §1

[11] = test system: CAKI-1 (renal cancer cell line); test: NCI-60 single-dose assay; type: cell-based, human; conditions: Homo sapiens, CAKI-1, read-out: growth inhibition (GI%) and cytotoxicity (negative values)
Procedure, shortened: as §1

[12] = test system: NCI-H226 (non-small cell lung cancer cell line); test: NCI-60 single-dose assay; type: cell-based, human; conditions: Homo sapiens, NCI-H226, read-out: growth inhibition (GI%) and cytotoxicity (negative values)
Procedure, shortened: as §1

[13] = test system: COLO 205 (colon cancer cell line); test: NCI-60 single-dose assay; type: cell-based, human; conditions: Homo sapiens, COLO 205, read-out: growth inhibition (GI%) and cytotoxicity (negative values)
Procedure, shortened: as §1

[14] = test system: RPMI-8226 (leukemia cell line); test: NCI-60 single-dose assay; type: cell-based, human; conditions: Homo sapiens, RPMI-8226, read-out: growth inhibition (GI%) and cytotoxicity (negative values)
Procedure, shortened: as §1

[15] = test system: SK-MEL-2 (melanoma cell line); test: NCI-60 single-dose assay; type: cell-based, human; conditions: Homo sapiens, SK-MEL-2, read-out: growth inhibition (GI%) and cytotoxicity (negative values)
Procedure, shortened: as §1

[16] = test system: IAV strain A/PR/8/34 (H1N1); conditions: preliminary screening
[17] = test system: T-47D (breast cancer cell line); test: NCI-60 single-dose assay; type: cell-based, human; conditions: Homo sapiens, T47D, read-out: growth inhibition (GI%) and cytotoxicity (negative values)
Procedure, shortened: as §1

| Structure (SMILES) | EC50 [1] [µM] | CC50 (in vitro) [µM] | inhibition at 10 µM [2] [%] | inhibition at 10 µM [3] [%] | inhibition at 10 µM (SR (leukemia cell line)) [%] | inhibition at 10 µM [4] [%] | inhibition at 10 µM [5] [%] | inhibition at 10 µM [6] [%] | inhibition at 10 µM [7] [%] | inhibition at 10 µM [8] [%] | inhibition at 10 µM [9] [%] | inhibition at 10 µM [10] [%] | inhibition at 10 µM [11] [%] | inhibition at 10 µM [12] [%] | inhibition at 10 µM [13] [%] | inhibition at 10 µM [14] [%] | inhibition at 10 µM [15] [%] | IAV/MDCK SI [16] | inhibition at 10 µM [17] [%] |
| --- | --- | --- | --- | --- | --- | --- | --- | --- | --- | --- | --- | --- | --- | --- | --- | --- | --- | --- | --- |
| COc1ccccc1N1CCN(CCNC(=O)c2c(Cl)[nH]c3c2CCCc2ccccc2-3)CC1 [Compound 15] | 17.7 | 8.29 | < 60 | 70.1 | 95.5 | < 60 | 73 | < 60 | 79.4 | < 60 | 66.4 | 63.6 | 61 | < 60 | < 60 | 70.1 | < 60 | 0.47 | – |
| O=C(NCCN1CCN(c2ccccc2Cl)CC1)c1c(Cl)[nH]c2c1CCCc1ccccc1-2 [Compound 14] | – | 15.6 | < 60 | < 60 | < 60 | – | < 60 | < 60 | < 60 | – | < 60 | 63.6 | – | – | < 60 | 60.9 | < 60 | – | – |
| N#Cc1ccccc1N1CCN(CCNC(=O)c2c(Cl)[nH]c3c2CCCc2ccccc2-3)CC1 [Compound 18, 2-Chloro-N-(2-(4-(2-cyanophenyl)piperazin-1-yl)ethyl)-1,4,5,6-tetrahydrobenzo[6,7]cyclohepta[1,2-b]pyrrole-3-carboxamide] | 49.4 | 13.9 | 64.5 | < 60 | 74.2 | < 60 | 78.5 | < 60 | 64.2 | < 60 | 61.3 | 67 | 62.7 | < 60 | < 60 | 69.1 | < 60 | 0.28 | 71.8 |
| O=C(NCCN1CCN(c2ccccc2)CC1)c1c(Cl)[nH]c2c1CCCc1ccccc1-2 [Compound 12, 2-Chloro-N-(2-(4-phenylpiperazin-1-yl)ethyl)-1,4,5,6-tetrahydrobenzo[6,7]cyclohepta[1,2-b]pyrrole-3-carboxamide] | 3.49 | 32.1 | < 60 | < 60 | 78.7 | – | 60.9 | – | 65.5 | – | < 60 | – | – | – | < 60 | < 60 | < 60 | 9.18 | – |
